How the values of the data set were obtained:
[drawing 8] was dissolved in alloocimene.
Examples 1 and 2 were repeated except that dodecane was used as a solvent in place of alloocimene or farnesenes.
[drawing 9] is dissolved in mixed isomers of farnesene.
[drawing 10] is dissolved in mixed isomers of farnesenes.
[drawing 11] is dissolved in mixed isomers of farnesenes.
[drawing 12] is dissolved in alloocimene.
[drawing 13] is dissolved in mixed isomers of farnesene.
For “bis(N,N′-diisopropylacetamidinato)cobalt(II)”, the “solubility (in words)” value was “high”.

On to “bis(N,N′-diisopropylpentamidinato)manganese(II)”, for which the “solubility (in words)” value was “high”.

On to “copper(I) (N,N′-di-sec-butylacetamidinate)”, for which the “solubility (in words)” value is “high”.

For “tris(N,N′-diisopropylacetamidinato)yttrium(III)”, the “solubility (in words)” value is listed as “high”.

Regarding “tris(N,N′-diisopropylformamidinato)lanthanum(III)”, the “solubility (in words)” value is recorded as “high”.

The record behind these values is patent US9790378B2, “Vapor source using solutions of precursors in terpenes” (President and Fellows of Harvard College, priority 2010, dated 2017).
